# Results taken from ChEMBL document CHEMBL5260810, “Inhibition of bromodomain-containing protein 9 for the prevention of epigenetically-defined drug resistance” (Bioorg Med Chem Lett, 2017).
# Activity calls are given as the source filed them. The calls are words filed in the database; no cut-off is given here.
# Experiments:
# Type in all cases: functional, cell-based
# [1] = system: MDA-MB-231; experiment: Antiproliferative activity against human MDA-MB-231 cells assessed as reduction in colony formation upto 20 uM supplemented with fresh medium containing compound every 3 days for 9 days by MTT staining based clonogenic assay; details: time 9.0 day
# [2] = system: HL-60; experiment: Cytotoxicity against human HL-60 cells measured after 8 days; details: HL-60, 192 h
# [3] = Cytotoxicity against human HCC630 cells measured after 3 days; details: HCC630, 72 h
# [4] = system: OVCAR-5; experiment: Cytotoxicity against human OVCAR-5 cells measured after 3 days; details: OVCAR-5, 72 h
# [5] = system: U-937; experiment: Cytotoxicity against human U-937 cells measured after 3 days; details: U-937, 72 h
# [6] = system: KARPAS-422; experiment: Cytotoxicity against human KARPAS-422 cells measured after 3 days; details: KARPAS-422, 72 h
# [7] = Cytotoxicity against human RMUG-S cells measured after 3 days; details: 72 h
# [8] = system: BT-474; experiment: Cytotoxicity against human BT-474 cells measured after 3 days; details: BT-474, 72 h
# [9] = system: HBL-100; experiment: Cytotoxicity against human HBL-100 cells measured after 3 days; details: HBL-100, 72 h
# [10] = system: SNU-449; experiment: Cytotoxicity against human SNU-449 cells measured after 3 days; details: SNU-449, 72 h
# [11] = system: NCI-H1734; experiment: Cytotoxicity against human NCI-H1734 cells measured after 3 days; details: NCI-H1734, 72 h
# [12] = Cytotoxicity against human HCC3153 cells measured after 8 days; details: HCC3153, 192 h
# [13] = system: HCC1954; experiment: Cytotoxicity against human HCC1954 cells measured after 3 days; details: HCC1954, 72 h
# [14] = system: OCI-AML-3; experiment: Cytotoxicity against human OCI-AML-3 cells measured after 3 days; details: OCI-AML-3, 72 h
# [15] = Cytotoxicity against human KP-3L cells measured after 3 days; details: 72 h
# [16] = Cytotoxicity against human SUM52PE cells measured after 3 days; details: 72 h
# [17] = Cytotoxicity against human HCC1623 cells measured after 3 days; details: HCC1623, 72 h
# [18] = Cytotoxicity against human MT-3 cells measured after 3 days; details: MT-3, 72 h
# [19] = Cytotoxicity against human OVCA 420 cells measured after 3 days; details: OVCA 420, 72 h
# [20] = system: TERT-RPE1; experiment: Cytotoxicity against hTERT-RPE1 cells measured after 8 days; details: Homo sapiens, RPE-1, 192 h
# [21] = system: COR-L47; experiment: Cytotoxicity against human COR-L47 cells measured after 3 days; details: COR-L47, 72 h
# [22] = Cytotoxicity against human HCC1428 cells measured after 8 days; details: HCC1428, 192 h
# [23] = Cytotoxicity against human COV413A cells measured after 3 days; details: 72 h
# [24] = Cytotoxicity against human Ri-1 cells measured after 3 days; details: Ri-1, 72 h
# [25] = system: NCI-H1944; experiment: Cytotoxicity against human NCI-H1944 cells measured after 3 days; details: NCI-H1944, 72 h
# [26] = Cytotoxicity against human OV7 cells measured after 3 days; details: OV7, 72 h
# [27] = system: KG-1; experiment: Cytotoxicity against human KG-1 cells measured after 3 days; details: KG-1, 72 h
# [28] = Cytotoxicity against human ATRFLOX cells measured after 3 days; details: 72 h
# [29] = system: HCC1419; experiment: Cytotoxicity against human HCC1419 cells measured after 3 days; details: HCC1419, 72 h
# [30] = system: SU-DHL-5; experiment: Cytotoxicity against human SU-DHL-5 cells measured after 3 days; details: SU-DHL-5, 72 h
# [31] = Cytotoxicity against human YMB-1 cells measured after 3 days; details: YMB-1, 72 h
# [32] = Cytotoxicity against human Hs 38.T cells measured after 3 days; details: 72 h
# [33] = system: Granta-519; experiment: Cytotoxicity against human Granta-519 cells measured after 3 days; details: Granta-519, 72 h
# [34] = Cytotoxicity against human JHH-4 cells measured after 3 days; details: JHH-4, 72 h
# [35] = Cytotoxicity against human OV56 cells measured after 3 days; details: OV56, 72 h
# [36] = system: CA46; experiment: Cytotoxicity against human CA46 cells measured after 3 days; details: CA46, 72 h
# [37] = Cytotoxicity against human ONCO-DG-1 cells measured after 3 days; details: ONCO-DG-1, 72 h
# [38] = system: ZR-75-1; experiment: Cytotoxicity against human ZR-75-1 cells measured after 8 days; details: ZR-75-1, 192 h
# [39] = system: NCI-H1573; experiment: Cytotoxicity against human NCI-H1573 cells after 8 days; details: NCI-H1573, 192 h
# [40] = system: ES-2; experiment: Cytotoxicity against human ES2 cells measured after 3 days; details: ES-2, 72 h
# [41] = Cytotoxicity against human TYK-nu.CP-r cells measured after 3 days; details: 72 h
# [42] = system: SUP-B15; experiment: Cytotoxicity against human SUP-B15 cells measured after 3 days; details: SUP-B15, 72 h
# [43] = system: A2780; experiment: Cytotoxicity against human A2780 cells measured after 3 days; details: A2780, 72 h
# [44] = system: U-698-M; experiment: Cytotoxicity against human U-698-M cells measured after 3 days; details: 72 h
# [45] = system: RMG-I; experiment: Cytotoxicity against human RMG-I cells measured after 3 days; details: 72 h
# [46] = system: HCC95; experiment: Cytotoxicity against human HCC95 cells measured after 3 days; details: HCC95, 72 h
# [47] = system: MEL-HO; experiment: Cytotoxicity against human MEL-HO cells measured after 3 days; details: 72 h
# [48] = system: LN-229; experiment: Cytotoxicity against human LN-229 cells measured after 3 days; details: LN-229, 72 h
# [49] = system: NCI-H2030; experiment: Cytotoxicity against human NCI-H2030 cells measured after 8 days; details: NCI-H2030, 192 h
# [50] = system: HuCCT-1; experiment: Cytotoxicity against human HuCCT-1 cells measured after 3 days; details: HuCCT-1, 72 h
# [51] = Cytotoxicity against human EFM-192A cells measured after 3 days; details: 72 h
# [52] = Cytotoxicity against human NCI-H820 cells measured after 8 days; details: NCI-H820, 192 h
# [53] = Cytotoxicity against human EB1 cells measured after 3 days; details: EB1, 72 h
# [54] = Cytotoxicity against human HCC1493 cells measured after 3 days; details: HCC1493, 72 h
# [55] = Cytotoxicity against human HCC89 cells measured after 3 days; details: HCC89, 72 h
# [56] = system: OAW-28; experiment: Cytotoxicity against human OAW28 cells measured after 3 days; details: OAW-28, 72 h
# [57] = system: Rec1; experiment: Cytotoxicity against human REC1 cells measured after 3 days; details: Rec1, 72 h
# [58] = Cytotoxicity against human UKE-1 cells measured after 3 days; details: UKE1, 72 h
# [59] = system: PC-9; experiment: Cytotoxicity against human PC-9 cells assessed as growth inhibition at 2 uM supplemented with fresh medium containing compound every 3 days for 9 days by Beckman Coulter counting method; details: time 9.0 day
# [60] = system: SU-DHL-8; experiment: Cytotoxicity against human SU-DHL-8 cells measured after 3 days; details: SU-DHL-8, 72 h
structure (smiles),measurement,setting,value
C/C=C/Cn1cc(-c2ccc(C(C)(C)O)cc2OC)c2cc[nH]c2c1=O,Activity,[1],inactive
same,IC50,[2],13.6 µM
C/C=C/Cn1cc(-c2cc(OC)c(C(=O)N3CCOCC3)cc2OC)c2cc(C)[nH]c2c1=O,IC50,[3],5 µM
same,IC50,[4],5 µM
same,IC50,[5],5 µM
same,IC50,[6],5 µM
same,IC50,[7],5 µM
same,IC50,[8],5 µM
same,IC50,[9],5 µM
same,IC50,[10],5 µM
same,IC50,[11],5 µM
same,IC50,[12],2 µM
same,IC50,[13],5 µM
same,IC50,[14],5 µM
same,IC50,[15],5 µM
same,IC50,[16],5 µM
same,IC50,[17],5 µM
same,IC50,[18],5 µM
same,IC50,[19],5 µM
same,IC50,[20],2 µM
same,IC50,[21],5 µM
same,IC50,[22],2 µM
same,IC50,[23],5 µM
same,IC50,[24],5 µM
same,IC50,[25],5 µM
same,IC50,[26],5 µM
same,IC50,[27],5 µM
same,IC50,[28],5 µM
same,IC50,[29],5 µM
same,IC50,[30],5 µM
same,IC50,[31],5 µM
same,IC50,[32],5 µM
same,IC50,[33],5 µM
same,IC50,[34],5 µM
same,IC50,[35],5 µM
same,IC50,[36],5 µM
same,IC50,[37],5 µM
same,IC50,[38],2 µM
same,IC50,[39],2 µM
same,IC50,[40],5 µM
same,IC50,[41],5 µM
same,IC50,[42],5 µM
same,IC50,[43],5 µM
same,IC50,[44],5 µM
same,IC50,[45],5 µM
same,IC50,[46],5 µM
same,IC50,[47],5 µM
same,IC50,[48],5 µM
same,IC50,[49],2 µM
same,IC50,[50],5 µM
same,IC50,[51],5 µM
same,IC50,[52],2 µM
same,IC50,[53],5 µM
same,IC50,[54],5 µM
same,IC50,[55],5 µM
same,IC50,[56],5 µM
same,IC50,[57],5 µM
same,IC50,[58],5 µM
same,Activity,[59],inactive
same,IC50,[60],5 µM
